Values joined by “and” are separate entries in the source; they are usually repeats but may differ in a detail not shown here. Equal entries are not always repeated. Toxic doses and inconclusive results are not listed. The calls were made as follows: active = survival T/C of 150% or more; inactive = T/C below 125% in these data.
Test system: CD2F1 mice, L1210 leukemia ip, survival T/C
Experiment: NCI In Vivo Anticancer Drug Screen. Data for tumor model L1210 Leukemia (intraperitoneal) in CD2F1 (CDF1) mice
Conditions: endpoint: mean survival time, higher = longer survival
Summary of the method: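 Transplantable tumor in mice; compound-treated vs vehicle-treated groups. Read-out = treated/control ratio of the measured endpoint.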

[1] = dose: 100.0 mg/kg/injection, schedule: Q04DX002 (ip), vehicle: saline with Tween-80
[2] = dose: 200.0 mg/kg/injection, schedule: Q04DX002 (ip), vehicle: saline with Tween-80
[3] = dose: 75.0 mg/kg/injection, schedule: Q01DX001 (ip), vehicle: saline
[4] = dose: 150.0 mg/kg/injection, schedule: Q01DX001 (ip), vehicle: saline
[5] = dose: 25.0 mg/kg/injection, schedule: Q04DX003 (ip), vehicle: saline with Tween-80
[6] = dose: 100.0 mg/kg/injection, schedule: Q01DX009 (ip), vehicle: saline with Tween-80
[7] = dose: 200.0 mg/kg/injection, schedule: Q01DX009 (ip), vehicle: saline with Tween-80
[8] = dose: 400.0 mg/kg/injection, schedule: Q01DX009 (ip), vehicle: saline with Tween-80
[9] = dose: 100.0 mg/kg/injection, schedule: Q04DX003 (ip), vehicle: saline with Tween-80
[10] = dose: 200.0 mg/kg/injection, schedule: Q04DX003 (ip), vehicle: saline with Tween-80
[11] = dose: 400.0 mg/kg/injection, schedule: Q04DX003 (ip), vehicle: saline with Tween-80
[12] = dose: 200.0 mg/kg/injection, schedule: Q01DX001 (ip), vehicle: saline
[13] = dose: 12.5 mg/kg/injection, schedule: Q01DX009 (ip), vehicle: saline with Tween-80
[14] = dose: 25.0 mg/kg/injection, schedule: Q01DX009 (ip), vehicle: saline with Tween-80
[15] = dose: 50.0 mg/kg/injection, schedule: Q01DX009 (ip), vehicle: saline with Tween-80
[16] = dose: 50.0 mg/kg/injection, schedule: Q04DX003 (ip), vehicle: other
[17] = dose: 100.0 mg/kg/injection, schedule: Q04DX003 (ip), vehicle: other
[18] = dose: 200.0 mg/kg/injection, schedule: Q04DX003 (ip), vehicle: other

Measured: T/C

CC(CCOc1ccc(Cl)cc1Cl)C(=O)O (configuration not stated)
inactive: [1] 104 % of control | [2] 86 % of control

COC(=O)CC(=O)CBr
inactive: dose: 5.0 mg/kg/injection, schedule: Q01DX001 (ip), vehicle: saline with Tween-80 95 % of control | dose: 5.0 mg/kg/injection, schedule: Q01DX009 (ip), vehicle: saline with Tween-80 100 % of control | dose: 10.0 mg/kg/injection, schedule: Q01DX001 (ip), vehicle: saline with Tween-80 95 % of control | dose: 10.0 mg/kg/injection, schedule: Q01DX009 (ip), vehicle: saline with Tween-80 97 % of control | dose: 20.0 mg/kg/injection, schedule: Q01DX001 (ip), vehicle: saline with Tween-80 95 % of control | dose: 20.0 mg/kg/injection, schedule: Q01DX009 (ip), vehicle: saline with Tween-80 97 % of control

c1ccc(C(c2ccccc2)n2ccnc2)cc1
inactive: [3] 100 % of control | [4] 101 % of control

CC(Br)C(Br)CO (configuration not stated)
inactive: dose: 100.0 mg/kg/injection, schedule: Q04DX003 (ip), vehicle: saline 104 % of control | dose: 200.0 mg/kg/injection, schedule: Q04DX003 (ip), vehicle: saline 96 % of control | dose: 400.0 mg/kg/injection, schedule: Q04DX003 (ip), vehicle: saline 106 % of control

C=CC[As](=O)(O)c1ccccc1Cl
inactive: dose: 6.25 mg/kg/injection, schedule: Q04DX003 (ip), vehicle: saline with Tween-80 98 % of control | dose: 12.5 mg/kg/injection, schedule: Q04DX003 (ip), vehicle: saline with Tween-80 105 % of control | [5] 104 % of control

Nc1ccccc1Cl
inactive: dose: 31.25 mg/kg/injection, schedule: Q01DX009 (ip), vehicle: saline with Tween-80 95 % of control | dose: 31.25 mg/kg/injection, schedule: Q04DX003 (ip), vehicle: saline with Tween-80 97 % of control | dose: 62.5 mg/kg/injection, schedule: Q01DX009 (ip), vehicle: saline with Tween-80 91 % of control | dose: 62.5 mg/kg/injection, schedule: Q04DX003 (ip), vehicle: saline with Tween-80 101 % of control | dose: 125.0 mg/kg/injection, schedule: Q01DX009 (ip), vehicle: saline with Tween-80 93 % of control | dose: 125.0 mg/kg/injection, schedule: Q04DX003 (ip), vehicle: saline with Tween-80 101 % of control

CC(=O)Nc1cccc(NC(C)=O)n1
inactive: [6] 95 % of control | [7] 94 % of control | [8] 91 % of control

Cc1cccc(Cl)c1NC(=O)CS
inactive: [9] 98 % of control | [10] 98 % of control | [11] 98 % of control

O=P(Oc1ccc(OP(=O)(N2CC2)N2CC2)cc1)(N1CC1)N1CC1
inactive: dose: 58.0 mg/kg/injection, schedule: Q01DX001 (ip), vehicle: saline 119 % of control | dose: 300.0 mg/kg/injection, schedule: Q01DX001 (ip), vehicle: saline 89 % of control
active: dose: 133.0 mg/kg/injection, schedule: Q01DX001 (ip), vehicle: saline 152 % of control | [12] 179 % of control

CCc1cccc([N+](=O)[O-])c1CC
inactive: [5] 97 % of control | dose: 50.0 mg/kg/injection, schedule: Q04DX003 (ip), vehicle: saline with Tween-80 95 % of control | [9] 100 % of control and 105 % of control

COC(=O)C(CCCCN)NC(=O)c1ccccc1 (configuration not stated)
inactive: [9] 101 % of control | [10] 103 % of control | [11] 101 % of control

CCCCOC(=O)/C=C(\Br)C(=O)OCCCC
inactive: dose: 6.25 mg/kg/injection, schedule: Q01DX009 (ip), vehicle: saline with Tween-80 92 % of control and 96 % of control | [13] 94 % of control and 105 % of control | [14] 95 % of control and 100 % of control | [15] 100 % of control | [6] 92 % of control

Cc1ccc(S(=O)(=O)Nc2ccccc2)c(CC(O)(c2ccccc2)c2ccccc2)c1
inactive: [9] 88 % of control | [10] 88 % of control

CC(=O)Nc1ncc2ccccc2c1-c1ccc(NC(=O)CN(CCCl)CCCl)cc1
inactive: dose: 25.0 mg/kg/injection, schedule: Q04DX003 (ip), vehicle: other 112 % of control | [16] 116 % of control | [17] 112 % of control | [18] 124 % of control

ClSc1c(Cl)c(Cl)c(Cl)c(Cl)c1Cl
inactive: [9] 95 % of control | [10] 101 % of control | [11] 95 % of control

OCC1OC(c2nn(-c3ccccc3)[n+](-c3ccccc3)n2)C(O)C1O (configuration not stated)
inactive: dose: 12.5 mg/kg/injection, schedule: Q01DX005 (ip), vehicle: water 106 % of control | dose: 25.0 mg/kg/injection, schedule: Q01DX005 (ip), vehicle: water 97 % of control | dose: 50.0 mg/kg/injection, schedule: Q01DX005 (ip), vehicle: water 95 % of control | dose: 100.0 mg/kg/injection, schedule: Q01DX005 (ip), vehicle: water 106 % of control | dose: 200.0 mg/kg/injection, schedule: Q01DX005 (ip), vehicle: water 103 % of control

CS(=O)(=O)OCCCN(CCCOS(C)(=O)=O)c1ccc(C=Nc2ccc(-c3csc(COc4ccc(Cl)cc4Cl)n3)cc2)cc1
inactive: dose: 100.0 mg/kg/injection, schedule: Q01DX001 (ip), vehicle: saline with Tween-80 86 % of control | [6] 93 % of control | dose: 200.0 mg/kg/injection, schedule: Q01DX001 (ip), vehicle: saline with Tween-80 86 % of control | dose: 400.0 mg/kg/injection, schedule: Q01DX001 (ip), vehicle: saline with Tween-80 89 % of control

Nc1ncnc(N)c1N=O
inactive: [9] 96 % of control | [10] 89 % of control

NC1CC(=O)C(CC2C(=O)CC(N)CC2=O)C(=O)C1 (configuration not stated)
inactive: [9] 102 % of control | [10] 101 % of control | [11] 98 % of control

CCCCC(O)C(=O)O (configuration not stated)
inactive: [3] 94 % of control | [4] 96 % of control

c1ccc(-n2c3ccccc3c3ccccc32)cc1
inactive: [6] 98 % of control | [7] 98 % of control | [8] 95 % of control

CCNC(=O)OCCc1c2ccccc2nc2ccccc12
inactive: dose: 100.0 mg/kg/injection, schedule: Q04DX002 (ip), vehicle: other 105 % of control and 102 % of control | dose: 200.0 mg/kg/injection, schedule: Q04DX002 (ip), vehicle: other 97 % of control and 90 % of control | dose: 400.0 mg/kg/injection, schedule: Q04DX002 (ip), vehicle: other 94 % of control and 97 % of control

c1ccc2c(c1)c1ccccc1n2CCCCn1c2ccccc2c2ccccc21
inactive: [13] 95 % of control | [14] 87 % of control | [15] 101 % of control and 102 % of control | [6] 97 % of control | [7] 93 % of control

CC(C)(C)N1CCOCC1
inactive: [9] 100 % of control

CC(=O)Nc1ccc(-c2c(N)ncc3ccccc23)cc1
inactive: [16] 94 % of control | [17] 94 % of control | [18] 96 % of control | dose: 400.0 mg/kg/injection, schedule: Q04DX003 (ip), vehicle: other 100 % of control

O=C1OC2(c3ccc(O)cc3Oc3cc(O)ccc32)C2C1C1(Cl)C(Cl)=C(Cl)C2(Cl)C1(Cl)Cl (configuration not stated)
inactive: [6] 101 % of control | [7] 97 % of control | [8] 95 % of control

CCOC(=O)/C(C#N)=C\c1cc(OC)ccc1OC
inactive: [14] 102 % of control | [15] 94 % of control | [6] 104 % of control

BrC1CCCC1
inactive: dose: 100.0 mg/kg/injection, schedule: Q01DX001 (ip), vehicle: saline 100 % of control | [12] 102 % of control | dose: 400.0 mg/kg/injection, schedule: Q01DX001 (ip), vehicle: saline 102 % of control

[O-][N+](=C(c1ccccc1)c1ccccc1)c1ccccc1
inactive: dose: 75.0 mg/kg/injection, schedule: Q01DX009 (ip), vehicle: saline with Tween-80 96 % of control | dose: 150.0 mg/kg/injection, schedule: Q01DX009 (ip), vehicle: saline with Tween-80 94 % of control | dose: 300.0 mg/kg/injection, schedule: Q01DX009 (ip), vehicle: saline with Tween-80 94 % of control

O=C1OCc2ccccc21
inactive: [1] 96 % of control | [2] 100 % of control | dose: 400.0 mg/kg/injection, schedule: Q04DX002 (ip), vehicle: saline with Tween-80 100 % of control

OC1CCC(O)C2C3CCC(C3)C12 (configuration not stated)
inactive: [6] 98 % of control | [7] 100 % of control | [8] 102 % of control
